In patent US7112553B1, “Pesticidal indazole or benzotriazole derivatives” (Syngenta Limited, priority 1999, dated 2006):

Legend:
[1] = tested on: Phytophthora infestans lycopersici (PHYTIN) on tomatoes; assay type: in vivo; details: 100 ppm foliar spray; tomatoes inoculated one day after chemical application (Prot)
[2] = tested on: Pyricularia oryzae (PYRIOR) on rice; assay type: in vivo; details: 100 ppm foliar spray; rice inoculated one day after chemical application (Prot)
[3] = tested on: Puccinia recondita (PUCCRT) on wheat; details: in vivo
[4] = tested on: Uncinula necator (UNCINE) on vines; details: in vivo

SMILES	PRCO (Percentage Reduction from Control) PHYTIN Prot [1]	PRCO (Percentage Reduction from Control) PYRIOR Prot [2]	PRCO (Percentage Reduction from Control) PUCCRT Prot [3]	PRCO (Percentage Reduction from Control) UNCINE Erad [4]
CCCn1nc2ccc(CC(=O)Nc3snc(C)c3Cl)cc2n1 [Sample 1, N-(4-chloro-3-methylisothiazol-5-yl)-(2-propylbenzotriazol-5-yl)acetamide]	100%	100%	100%	
Cc1nsc(NC(=O)Cc2ccc3nn(C)nc3c2)c1Cl [Sample 2]		87%		
Cc1nsc(NC(=O)Cc2ccc3nn(Cc4ccc(F)cc4)nc3c2)c1Cl [Sample 4]		92%		
Cc1nsc(NC(=O)Cc2ccc3nn(CC(F)(F)F)nc3c2)c1Cl [Sample 8]		100%		
CCCCCn1nc2ccc(CC(=O)Nc3snc(C)c3Cl)cc2n1 [Sample 9]	100%	100%	99%	
Cc1nsc(NC(=O)Cc2ccc3nn(-c4ccc(C(F)(F)F)cc4Cl)nc3c2)c1Cl [Sample 11]		100%		
CCCC(C)n1nc2ccc(CC(=O)Nc3snc(C)c3Cl)cc2n1 (stereo not shown) [Sample 30]	100%		100%	100%
CCC(C)n1nc2ccc(CC(=O)Nc3snc(C)c3Cl)cc2n1 (stereo not shown) [Sample 31]	100%		100%	100%
CCCn1nc2ccc(CC(=O)N=c3sn(COCC)c(C)c3Cl)cc2n1 [Sample 34, N-[2-ethoxymethyl-4-chloro-3-methylisothiazolin-5-ylidene]-(2-propylbenzo-triazol-5-yl)acetamide]	81%	93%		100%
